PubChem BioAssay (NCI)
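Step 1: Grow cells in 96-well plates. Step 2: Expose to compound for 48 hours at 5 concentrations. Step 3: Interpolate endpoints linearly; if unreached, use highest concentration. Definition used: TGI = concentration required for complete inhibition of growth.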

How the values were obtained:
Assay in all cases: NCI tumour cell line growth inhibition, 48 h
HCC-2998 colon = system: HCC-2998 colon
SK-OV-3 ovarian = system: SK-OV-3 ovarian
MDA-MB-231 breast = system: MDA-MB-231 breast
CAKI-1 renal = system: CAKI-1 renal
LOX IMVI melanoma = system: LOX IMVI melanoma
HS 578T breast = system: HS 578T breast
UACC-62 melanoma = system: UACC-62 melanoma
OVCAR-8 ovarian = system: OVCAR-8 ovarian
HOP-62 NSCLC = system: HOP-62 NSCLC
OVCAR-3 ovarian = system: OVCAR-3 ovarian
NCI-H23 lung = system: NCI-H23 lung
CCRF-CEM leukemia = system: CCRF-CEM leukemia
NCI/ADR-RES ovarian = system: NCI/ADR-RES ovarian
NCI-H522 lung = system: NCI-H522 lung
KM12 colon = system: KM12 colon
SK-MEL-28 melanoma = system: SK-MEL-28 melanoma
786-0 renal = system: 786-0 renal
HT29 colon = system: HT29 colon
UACC-257 melanoma = system: UACC-257 melanoma
T-47D breast = system: T-47D breast
COLO 205 colon = system: COLO 205 colon
U251 CNS = system: U251 CNS
SNB-19 CNS = system: SNB-19 CNS
SK-MEL-2 melanoma = system: SK-MEL-2 melanoma
BT-549 breast = system: BT-549 breast
HCT-116 colon = system: HCT-116 colon
SN12C renal = system: SN12C renal
SK-MEL-5 melanoma = system: SK-MEL-5 melanoma
EKVX NSCLC = system: EKVX NSCLC
SF-539 CNS = system: SF-539 CNS
MOLT-4 leukemia = system: MOLT-4 leukemia
A549 NSCLC = system: A549 NSCLC
HCT-15 colon = system: HCT-15 colon
MCF7 breast = system: MCF7 breast
A498 renal = system: A498 renal
HL-60(TB) leukemia = system: HL-60(TB) leukemia
NCI-H460 lung = system: NCI-H460 lung
PC-3 prostate = system: PC-3 prostate
K-562 leukemia = system: K-562 leukemia
SF-268 CNS = system: SF-268 CNS
SNB-75 CNS = system: SNB-75 CNS
HOP-92 NSCLC = system: HOP-92 NSCLC
MDA-MB-435 = system: MDA-MB-435
TK-10 renal = system: TK-10 renal
IGROV1 ovarian = system: IGROV1 ovarian
MDA-N = system: MDA-N
M14 melanoma = system: M14 melanoma
MALME-3M melanoma = system: MALME-3M melanoma
UO-31 renal = system: UO-31 renal
NCI-H226 lung = system: NCI-H226 lung
OVCAR-5 ovarian = system: OVCAR-5 ovarian
ACHN renal = system: ACHN renal
DU-145 prostate = system: DU-145 prostate
SF-295 CNS = system: SF-295 CNS
SW-620 colon = system: SW-620 colon
RPMI-8226 leukemia = system: RPMI-8226 leukemia
RXF 393 renal = system: RXF 393 renal
SR leukemia = system: SR leukemia

CC(=O)OC1CC(OC2C(O)CC(OC3C(O)CC(OC4CCC5(C)C(CCC6C5CCC5(C)C(C7=CC(=O)OC7)C(O)CC65O)C4)OC3C)OC2C)OC(C)C1OC1OC(CO)C(O)C(O)C1O (stereo not given)
TGI (HCC-2998 colon): 4.09 µM | TGI (SK-OV-3 ovarian): 2.1 µM | TGI (MDA-MB-231 breast): 6.42 µM | TGI (CAKI-1 renal): 0.461 µM | TGI (LOX IMVI melanoma): 1.14 µM | TGI (HS 578T breast): > 100 µM | TGI (UACC-62 melanoma): 1.98 µM | TGI (OVCAR-8 ovarian): 1.56 µM | TGI (HOP-62 NSCLC): 0.483 µM | TGI (OVCAR-3 ovarian): 1.24 µM | TGI (NCI-H23 lung): 0.424 µM | TGI (CCRF-CEM leukemia): > 100 µM | TGI (NCI/ADR-RES ovarian): 0.755 µM | TGI (NCI-H522 lung): 1.2 µM | TGI (KM12 colon): 1.94 µM | TGI (SK-MEL-28 melanoma): 3.61 µM | TGI (786-0 renal): 0.943 µM | TGI (HT29 colon): 1.76 µM | TGI (UACC-257 melanoma): 1.88 µM | TGI (T-47D breast): 3.32 µM | TGI (COLO 205 colon): 2.13 µM | TGI (U251 CNS): 1.45 µM | TGI (SNB-19 CNS): 2.19 µM | TGI (SK-MEL-2 melanoma): 2.16 µM | TGI (BT-549 breast): 1.26 µM | TGI (HCT-116 colon): 0.91 µM | TGI (SN12C renal): 1.32 µM | TGI (SK-MEL-5 melanoma): 1.06 µM | TGI (EKVX NSCLC): 0.803 µM | TGI (SF-539 CNS): 0.421 µM | TGI (MOLT-4 leukemia): > 100 µM | TGI (A549 NSCLC): 0.244 µM | TGI (HCT-15 colon): 1.16 µM | TGI (MCF7 breast): 15.8 µM | TGI (A498 renal): 2.13 µM | TGI (HL-60(TB) leukemia): 0.577 µM | TGI (NCI-H460 lung): 0.491 µM | TGI (PC-3 prostate): 1.55 µM | TGI (K-562 leukemia): > 100 µM | TGI (SF-268 CNS): 2.48 µM | TGI (SNB-75 CNS): 2.97 µM | TGI (HOP-92 NSCLC): 3.17 µM | TGI (MDA-MB-435): 2.08 µM | TGI (TK-10 renal): 2.14 µM | TGI (IGROV1 ovarian): 3.58 µM | TGI (MDA-N): 1.77 µM | TGI (M14 melanoma): 2.31 µM | TGI (MALME-3M melanoma): 1.85 µM | TGI (UO-31 renal): 1.46 µM | TGI (NCI-H226 lung): 2.66 µM | TGI (OVCAR-5 ovarian): 1.72 µM | TGI (ACHN renal): 0.942 µM | TGI (DU-145 prostate): 0.684 µM | TGI (SF-295 CNS): 1.43 µM | TGI (SW-620 colon): 1.45 µM | TGI (RPMI-8226 leukemia): 5.7 µM

COc1c2c(cc3occ(-c4ccc(CC=C(C)C)cc4)c(=O)c13)OC(C)(C)C=C2
TGI (HCC-2998 colon): > 100 µM | TGI (SK-OV-3 ovarian): > 100 µM | TGI (MDA-MB-231 breast): > 100 µM | TGI (CAKI-1 renal): > 100 µM | TGI (LOX IMVI melanoma): > 100 µM | TGI (HS 578T breast): > 100 µM | TGI (UACC-62 melanoma): > 100 µM | TGI (OVCAR-8 ovarian): > 100 µM | TGI (HOP-62 NSCLC): > 100 µM | TGI (OVCAR-3 ovarian): > 100 µM | TGI (NCI-H23 lung): > 100 µM | TGI (CCRF-CEM leukemia): > 100 µM | TGI (NCI/ADR-RES ovarian): > 100 µM | TGI (NCI-H522 lung): > 100 µM | TGI (KM12 colon): > 100 µM | TGI (SK-MEL-28 melanoma): > 100 µM | TGI (RXF 393 renal): > 100 µM | TGI (786-0 renal): > 100 µM | TGI (HT29 colon): > 100 µM | TGI (UACC-257 melanoma): > 100 µM | TGI (T-47D breast): > 100 µM | TGI (COLO 205 colon): > 100 µM | TGI (U251 CNS): > 100 µM | TGI (SNB-19 CNS): > 100 µM | TGI (SK-MEL-2 melanoma): 62.7 µM | TGI (BT-549 breast): > 100 µM | TGI (HCT-116 colon): > 100 µM | TGI (SN12C renal): > 100 µM | TGI (SK-MEL-5 melanoma): 48.9 µM | TGI (EKVX NSCLC): > 100 µM | TGI (MOLT-4 leukemia): 52.1 µM | TGI (A549 NSCLC): > 100 µM | TGI (HCT-15 colon): > 100 µM | TGI (MCF7 breast): > 100 µM | TGI (HL-60(TB) leukemia): 46.4 µM | TGI (PC-3 prostate): > 100 µM | TGI (K-562 leukemia): > 100 µM | TGI (SF-268 CNS): > 100 µM | TGI (SNB-75 CNS): > 100 µM | TGI (MDA-MB-435): > 100 µM | TGI (TK-10 renal): > 100 µM | TGI (IGROV1 ovarian): > 100 µM | TGI (MDA-N): > 100 µM | TGI (M14 melanoma): > 100 µM | TGI (MALME-3M melanoma): > 100 µM | TGI (UO-31 renal): > 100 µM | TGI (NCI-H226 lung): > 100 µM | TGI (OVCAR-5 ovarian): > 100 µM | TGI (ACHN renal): > 100 µM | TGI (SR leukemia): > 100 µM | TGI (DU-145 prostate): > 100 µM | TGI (SF-295 CNS): > 100 µM | TGI (SW-620 colon): > 100 µM | TGI (RPMI-8226 leukemia): 50.3 µM
